Earlier results, collected in US11147778B2, “Siderophore-polymer conjugates for increasing bacterial sensitivity to antibiotics” (Wisconsin Alumni Research Foundation, priority 2016, dated 2021).

Legend:
Set-up in all cases: key: S = susceptible; I = intermediate; R = resistant
[1] = test system: Pseudomonas aeruginosa 9139; conditions: strain 9139; cited from earlier work
[2] = test system: Pseudomonas aeruginosa 3071; conditions: strain 3071; cited from earlier work
[3] = test system: Pseudomonas aeruginosa 26975; conditions: strain 26975; cited from earlier work
[4] = test system: Pseudomonas aeruginosa 3070; conditions: strain 3070; cited from earlier work
[5] = test system: Pseudomonas aeruginosa 3072; conditions: strain 3072; cited from earlier work
[6] = test system: Pseudomonas aeruginosa 3076; conditions: strain 3076; cited from earlier work
[7] = test system: Pseudomonas aeruginosa 823; conditions: strain 823; cited from earlier work
[8] = test system: Pseudomonas aeruginosa 24530; conditions: strain 24530; cited from earlier work
[9] = test system: Pseudomonas aeruginosa 2638; conditions: strain 2638; cited from earlier work
[10] = test system: Pseudomonas aeruginosa 3068; conditions: strain 3068; cited from earlier work

Row | Structure (SMILES) | Phenotype (drug resistance profile) [1] | Phenotype (drug resistance profile) [2] | Phenotype (drug resistance profile) [3] | Phenotype (drug resistance profile) [4] | Phenotype (drug resistance profile) [5] | Phenotype (drug resistance profile) [6] | Phenotype (drug resistance profile) [7] | Phenotype (drug resistance profile) [8] | Phenotype (drug resistance profile) [9] | Phenotype (drug resistance profile) [10]
1 | CC(C)(O/N=C(\C(=O)N[C@@H]1C(=O)N2C(C(=O)[O-])=C(C[n+]3ccccc3)CS[C@H]12)c1csc(N)n1)C(=O)O [CAZ, ceftazidime] | S | CAZ-R, TZP-R, CIP-R | R | R | S | R | R | R | CAZ-R, TZP-R, CIP-R, TOB-R | S
2 | CO/N=C(\C(=O)N[C@@H]1C(=O)N2C(C(=O)[O-])=C(C[N+]3(C)CCCC3)CS[C@H]12)c1csc(N)n1 [FEP, cefepime] | R | DOR-R, IPM-R, MEM-R, FEP-R, | R | I | S | I | R | DOR-R, IPM-R, MEM-R, FEP-R, | DOR-R, IPM-R, MEM-R, FEP-R, | DOR-R, IPM-R, MEM-R, FEP-R,
3 | C[C@@H](O)[C@H]1C(=O)N2C(C(=O)O)=C(S[C@@H]3CN[C@H](C(=O)N(C)C)C3)[C@H](C)[C@H]12 [MEM, meropenem] | S | DOR-R, IPM-R, MEM-R, FEP-R, | S | R | R | R | S | DOR-R, IPM-R, MEM-R, FEP-R, | DOR-R, IPM-R, MEM-R, FEP-R, | DOR-R, IPM-R, MEM-R, FEP-R,
4 | NC[C@H]1O[C@H](O[C@H]2[C@H](O)[C@@H](O[C@H]3O[C@H](CO)[C@@H](O)[C@H](N)[C@H]3O)[C@H](N)C[C@@H]2N)[C@H](N)C[C@@H]1O [TOB, tobramycin] | S |  | R |  | R | S | S | S | CAZ-R, TZP-R, CIP-R, TOB-R | 
5 | C[C@@H](O)[C@H]1C(=O)N2C(C(=O)O)=C(S[C@@H]3CN[C@H](CNS(N)(=O)=O)C3)[C@H](C)[C@H]12 [DOR, doripenem] | S | DOR-R, IPM-R, MEM-R, FEP-R, | S | R | R | R | S | DOR-R, IPM-R, MEM-R, FEP-R, | DOR-R, IPM-R, MEM-R, FEP-R, | DOR-R, IPM-R, MEM-R, FEP-R,
6 | O=C(O)c1cn(C2CC2)c2cc(N3CCNCC3)c(F)cc2c1=O [CIP, ciprofloxacin] | S | CAZ-R, TZP-R, CIP-R | S | R | R | R | S | S | CAZ-R, TZP-R, CIP-R, TOB-R | R
